Test results as given in patent publication US20170273948A1, “USE OF SIGMA RECEPTOR LIGANDS IN OSTEOARTHRITIS” (LABORATORIOS DEL DR ESTEVE S.A., priority 2014, published 2017).
Counter-ions that a name gives are not always drawn.

Legend:
[1] = tested on: osteoarthritic-induced allodynia (MIA-induced osteoarthritis); experiment: MIA-induced osteoarthritis in rats: mechanical (tactile) allodynia, paw withdrawal threshold to von Frey filaments; type: in vivo, rat; conditions: for progressive amelioration of the basal pain (PRE) found before daily treatments: Example A, three weeks i.p. b.i.d.; for progressive amelioration of the basal pain (PRE) found before daily treatments / analgesia (analgesic effect, POST) / analgesic effect (POST): example 1 60 mg/kg, Tramadol 20 mg/kg; for analgesia (analgesic effect, POST): day 1, single treatment, i.p.; for analgesia (analgesic effect, POST) / analgesic effect (POST): 30 min after treatment; for pain after treatment discontinuation (wash out): versus initial situation; for analgesic effect (POST): day 22, after three weeks of treatment i.p. b.i.d.
Description: Male Sprague-Dawley rats (Harlan, San Pietro Nastisone, Udine, Italia), weighing 50-75 g on arrival at the laboratory, were used. Animals were allowed to acclimate for one week in groups of five per cage in a room with constant temperature (21±1° C.) and relative humidity (60%), and free access to food and water ad libitum. Automatic light-on and -off allowed alternate light-dark cycles of 12 h:12 h, with light-on at 7:00 a.m. Procedures were approved by the Committee on Animal Research Ethics of ESTEVE and conformed to the guidelines of the IASP (Zimmermann, 1983). In particular, the duration of the experiments was kept as short as possible and the number of rats used was minimized.
Osteoarthritis in rats was induced by intraarticular (i.a.) injection of monosodium iodoacetate (MIA) in the right knee joint, essentially as described by Dunham et al. (1993). After one week of acclimation, rats were briefly anesthetized with isoflurane (5% in 02 at 600 cc/min; IsoFlo®, Veterinaria ESTEVE, MI, Italy) until lack of response to a toe pinch. Surgical area was swabbed with chlorohexidine and alcohol, then a single injection of MIA (50 μl of a 40 mg/ml solution in 0.9% saline, i.e. equal to 2 mg/injection) was delivered using a 28-gauge needle inserted into the joint space of the knee through the intra-patellar ligament, by a gentle flexion of the knee. Sham animals received, in parallel, an equal volume of 0.9% sterile saline.
The MIA dose to obtain a prolonged, marked decrease in mechanical thresholds to von Frey filaments pressure was selected on the basis of a dose-response experiment (not shown). After recovery, animals were returned to their home cage.
Rats […] to the test conditions beforehand were assigned into wire mesh bottom cylinders (transparent metacrylate, 300 mm high×200 mm diameter) and allowed to acclimatize prior the start of the experiment. Tactile allodynia was assessed by determination of the paw withdrawal threshold (PWT) to von Frey filaments stimulation, starting 1 to 15 grams, on the plantar surface of the hind paw. Each filament was applied 3 s until a withdrawal response occurred. A single response indicated a positive response. PWTs were assessed in both the inflamed (ipsilateral) and non-inflamed (contralateral) hind paw and expressed as grams. Control thresholds in the contralateral paw were established in a similar fashion. Nociceptive thresholds were measured prior to MIA injection (Day 0) then after 2 weeks (Day 14) in order to assess allodynia. Only rats with a significant decrease in the minimal pressure (threshold) to trigger ipsilateral versus contralateral hindpaw withdrawal were included in the pharmacological groups; non-responders (noninjured animals) were considered an exclusion criteria. Each animal was used in only one experiment, after which it was sacrificed by CO2.
OA was induced by MIA injection at day −14 in the intra-patellar ligament of the right hindpaw. Sham animals received, in parallel, 50 μl of sterile saline solution. Two weeks later, allodynic rats were characterized by a marked decrease in the minimal pressure (threshold) to trigger withdrawal of the ipsilateral hindpaw (vs. the contralateral hindpaw) when stimulated by using von Frey monofilaments. From day 1 rats received chronic treatment (i.p, b.i.d.) for three weeks (until day 22) with Example 1 or Tramadol for three weeks, and treatment was then discontinued and mechanical allodynia evaluated after 2 days and 7 days (days 24 and 29, respectively) (wash-out period) (FIG. 1).
Two weeks after MIA injection into the knee, rats suffering from mechanical allodynia received a chronic treatment (3 weeks i.p, b.i.d.) with Example 1 (60 mg/kg, FIG. 2A) or Tramadol (20 mg/kg, FIG. 2B). […]

[2] = tested on: osteoarthritic-induced allodynia (MIA-induced osteoarthritis); experiment: as above; type: in vivo, rat; conditions: for progressive amelioration of the basal pain (PRE) found before daily treatments: Example B, i.p. b.i.d., oxycodone 2.5 mg/kg; for progressive amelioration of the basal pain (PRE) found before daily treatments / analgesia (POST): Ex.3 40 mg/kg; for analgesia (POST): day 1, single treatment, i.p., 30 min after treatment, Oxycodone 2.5 mg/kg; for analgesic effect (POST): day 29, repeated daily treatments i.p. b.i.d., Ex. 3 40 mg/kg after four weeks, Oxycodone 2.5 mg/kg after three weeks
sigma 1 (σ-1) site = sigma 1 (σ-1) site (Homo sapiens, UniProt Q99720); conditions: cited from earlier work
sigma (σ-2) site = sigma (σ-2) site (Homo sapiens, UniProt Q5BJF2); conditions: cited from earlier work
[3] = listed as example 1, hydrochloride

sigma (σ-2) site, sequence (Q5BJF2 whole entry): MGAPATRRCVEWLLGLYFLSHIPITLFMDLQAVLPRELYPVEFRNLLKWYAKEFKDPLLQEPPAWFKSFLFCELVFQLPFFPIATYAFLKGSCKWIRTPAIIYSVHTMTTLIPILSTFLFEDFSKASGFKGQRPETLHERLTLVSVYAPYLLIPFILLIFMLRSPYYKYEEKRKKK
sigma 1 (σ-1) site, sequence (Q99720 whole entry): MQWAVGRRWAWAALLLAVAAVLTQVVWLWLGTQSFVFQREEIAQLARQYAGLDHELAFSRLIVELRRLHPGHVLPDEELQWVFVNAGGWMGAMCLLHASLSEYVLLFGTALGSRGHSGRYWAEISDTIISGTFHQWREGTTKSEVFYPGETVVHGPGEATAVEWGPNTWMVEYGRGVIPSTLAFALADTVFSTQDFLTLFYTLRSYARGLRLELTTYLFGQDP

## Cc1cc(OCCN2CCOCC2)nn1-c1ccc2ccccc2c1 [Example 1, 4-{2-[5-Methyl-1-(naphthalen-2-yl)-1H-pyrazol-3-yloxy]ethyl}morpholine hydrochloride]
[1]
  progressive amelioration of the basal pain (PRE) found before daily treatments: progressively ameliorates the basal pain
[1]; hydrochloride
  analgesia (analgesic effect, POST): ~40%
  analgesic effect (POST): 90%
[1]; [3]
  analgesia (analgesic effect, POST): around 40%
  analgesic effect (POST): around 90%
[1]; day 2 after discontinuation (day 24)
  pain after treatment discontinuation (wash out): still reduced
[1]; day 7 after discontinuation (day 29)
  pain after treatment discontinuation (wash out): went back to the initial situation
[1]; day 22, before first morning administration, example 1 60 mg/kg i.p. b.i.d.
  reduction of basal pain (PRE) found before daily treatments: 80%
[1]; repeated treatment i.p. b.i.d. for three weeks
  analgesic tolerance (loss of analgesic efficacy following repeated treatment): does not induce analgesic tolerance

## CC(=O)N1CCN(CCOCc2ccn(-c3ccc(F)c(F)c3)n2)CC1 [Example 3, 1-(4-(2-((1-(3,4-difluorophenyl)-1H-pyrazol-3-yl)methoxy)ethyl)piperazin-1-yl)ethanone hydrochloride]
[2]
  progressive amelioration of the basal pain (PRE) found before daily treatments: progressively ameliorates the basal pain
  analgesia (POST): around 5%
  analgesic effect (POST): around 60%
[2]; day 30, Ex.3 40 mg/kg i.p. b.i.d.
  reduction of basal pain (PRE) found before daily treatments: 65%

## COc1ccc2c3c1O[C@H]1C(=O)CC[C@@]4(O)[C@@H](C2)N(C)CC[C@]314 [Oxycodone, reference compound]
[2]
  progressive amelioration of the basal pain (PRE) found before daily treatments: not
  analgesia (POST): ~65%
  analgesic effect (POST): ~15%

## COc1cccc(C2(O)CCCCC2CN(C)C)c1 (stereo not drawn) [Tramadol, reference compound]
[1]
  progressive amelioration of the basal pain (PRE) found before daily treatments: not
  analgesia (analgesic effect, POST): around 90%
  analgesic effect (POST): ~10%

## SKF 10047
Sigma 1 (σ-1) site
  affinity for the sigma 1 (σ-1) site: nanomolar
Sigma (σ-2) site
  affinity for the sigma (σ-2) site: micromolar
